The nature of this data set: Equilibration of azalide isomers I and II in heated aqueous acid, HPLC (Table 1). Format: physicochemical. Particulars: isomer I prior to equilibration, for comparison.

Regarding `CCCNC[C@]1(O)[C@H](C)O[C@@H](O[C@H]2[C@H](C)[C@@H](OC3O[C@H](C)C[C@H](N(C)C)[C@H]3O)C(C)(O)C[C@@H](C)CN[C@H](C)[C@@H](O)[C@](C)(O)[C@@H](CC)OC(=O)[C@@H]2C)C[C@@]1(C)OC` (single isomer, unassigned) [isomer I], the “% Equilibrium mixture of isomers” value came out at 98.39% and the “% Impurities” value was 1.61%.

The values are drawn from patent US20030171307A1, “Azalide antibiotic compositions” (Pfizer Inc., priority 2001, published 2003).
